pIC50: −log10 of the molar value.
How the values were obtained:
[1] = target: VIM-1 (Pseudomonas aeruginosa (strain ATCC 15692 / DSM 22644 / CIP 104116 / JCM 14847 / LMG 12228 / 1C / PRS 101 / PAO1), UniProt A0A0F7KYQ8); test: biochemical; conditions: CCF2-FA substrate, 2 hours at 25° C
Method in brief: (§1)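 Inhibitor was mixed with the metallo-β-lactamase and CCF2-FA. After 2 hours at 25° C, fluorescence of the coumarin–fluorescein cephalosporin substrate was read. IC50 was calculated with a 4-parameter fit.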

[2] = target: IMP-1 (Serratia marcescens, UniProt P52699); test: biochemical; format: biochemical; conditions: CCF2-FA substrate, 2 hours at 25° C; read-out: IMP-1 IC50
Sequence of IMP-1 (P52699 whole entry, looked up, species assumed): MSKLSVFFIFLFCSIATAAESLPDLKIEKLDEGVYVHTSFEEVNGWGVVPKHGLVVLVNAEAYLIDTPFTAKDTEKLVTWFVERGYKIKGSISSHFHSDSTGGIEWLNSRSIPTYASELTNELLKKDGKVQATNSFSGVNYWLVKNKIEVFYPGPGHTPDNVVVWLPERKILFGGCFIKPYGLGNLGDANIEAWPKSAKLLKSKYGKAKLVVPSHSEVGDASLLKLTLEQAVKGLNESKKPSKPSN
Method in brief: as §1

[3] = target: NDM-1 (Klebsiella pneumoniae, UniProt C7C422); test: biochemical; format: biochemical; conditions: CCF2-FA substrate, 2 hours at 25° C; read-out: NDM-1 IC50
Sequence of NDM-1 (C7C422 whole entry, looked up, species assumed): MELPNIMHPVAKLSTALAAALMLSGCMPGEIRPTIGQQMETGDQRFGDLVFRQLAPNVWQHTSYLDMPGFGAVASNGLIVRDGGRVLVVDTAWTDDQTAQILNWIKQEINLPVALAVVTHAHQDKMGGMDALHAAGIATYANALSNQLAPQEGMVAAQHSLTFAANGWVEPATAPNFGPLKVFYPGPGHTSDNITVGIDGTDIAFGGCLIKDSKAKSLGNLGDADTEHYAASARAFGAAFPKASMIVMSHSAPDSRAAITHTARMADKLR
Method in brief: as §1

[4] = system: Serratia marcescens expressing IMP-1 (CL5741); format: cell-based; conditions: with imipenem 1 μg/ml, 95% inhibition of bacterial growth; for Serratia marcescens MITC95: IMP-1 (CL5741)
Method in brief: (§2)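 Colonies from overnight 35 °C blood-agar cultures were suspended in saline, diluted 1:100 into 1.1× CAMHB and exposed to test compound with or without imipenem at 1 μg/ml. After 22–24 h at 35 °C, absorbance was read to find the concentration restoring imipenem susceptibility.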

[5] = system: Escherichia coli expressing NDM-1 (CLB30005, CLB30016); format: cell-based; conditions: with imipenem 1 μg/ml, 95% inhibition of bacterial growth; for Escherichia coli MITC95: NDM-1 (CLB30016)
Method in brief: as §2

[6] = system: Klebsiella pneumoniae expressing VIM-1 (IHMA599644); format: cell-based; conditions: with imipenem 1 μg/ml, 95% inhibition of bacterial growth; for Klebsiella pneumoniae MITC95: VIM-1 (IHMA599644)
Method in brief: as §2

[7] = system: P. aeruginosa expressing IMP-1, efflux− (MB9799); test: Efflux: concentration of MBL inhibitor which restores susceptibility to imipenem; format: cell-based, Pseudomonas aeruginosa; conditions: imipenem at 2 μg/mL, in the presence of a class A, C, D serine β-lactamase inhibitor closely related to relebactam
Description: (§3) The strain background is Pseudomonas aeruginosa PAO1.

[8] = system: P. aeruginosa expressing IMP-1, efflux+ (MB9798); format: cell-based, Pseudomonas aeruginosa; conditions: for P. aeruginosa expressing IMP-1, efflux+ (MB9798) MITC95: imipenem at 2 μg/mL, in the presence of a class A, C, D serine β-lactamase inhibitor closely related to relebactam; for Efflux ratio: ratio MITC95 PA_9798/MITC95 PA_9799
Description: as §3

SMILES | pIC50 [1] | pIC50 [2] | pIC50 [3] | Serratia marcescens expressing IMP-1 (CL5741) MITC95 [4] [µM] | Escherichia coli expressing NDM-1 (CLB30016) MITC95 [5] [µM] | Klebsiella pneumoniae expressing VIM-1 (IHMA599644) MITC95 [6] [µM] | P. aeruginosa expressing IMP-1, efflux− (MB9799) MITC95 [7] [µM] | P. aeruginosa expressing IMP-1, efflux+ (MB9798) MITC95 [8] [µM] | Efflux ratio [8] | Serratia marcescens MITC95 [4] [µM] | Escherichia coli MITC95 [5] [µM] | Klebsiella pneumoniae MITC95 [6] [µM]
NS(=O)(=O)c1c(S(=O)(=O)C2CNC2)ccc(-c2ccc3ncnn3c2)c1-c1nnn[nH]1.O=C(O)C(F)(F)F [Example 104, 3-((4-([1,2,4]triazolo[1,5-a]pyridin-6-yl)-2-sulfamoyl-3-(1H-tetrazol-5-yl)phenyl)sulfonyl)azetidin-1-ium 2,2,2-trifluoroacetate] | 9.16 | 8.45 | 8.68 | 6.25 | 3.125 | 3.125 | 1.563 | 12.5 | 8.00 |  |  | 
N#Cc1ccc(-c2ccc(S(=O)(=O)CCN)c(S(N)(=O)=O)c2-c2nnn[nH]2)c2[nH]c(N)nc12 [Example 295, 3-(2-amino-4-cyano-1H-benzo[d]imidazol-7-yl)-6-((2-aminoethyl)sulfonyl)-2-(1H-tetrazol-5-yl)benzenesulfonamide] | 9.98 | 8.91 | 9.94 |  |  |  | 1.563 | 1.563 | 1.00 | 3.125 | 1.563 | 3.125
NS(=O)(=O)c1c(S(=O)(=O)C2CNC2)ccc(-c2cccc3[nH]c(=O)[nH]c23)c1-c1nnn[nH]1 [Example 299, 6-(azetidin-3-ylsulfonyl)-3-(2-oxo-2,3-dihydro-1H-benzo[d]imidazol-4-yl)-2-(1H-tetrazol-5-yl) benzenesulfonamide] | 9.52 | 8.84 | 9.73 |  |  |  | 3.125 | 3.125 | 1.00 | 3.125 | 3.125 | 6.25
NS(=O)(=O)c1c(S(=O)(=O)[C@H]2CCNC2)ccc(-c2cccc3cn[nH]c23)c1-c1nn[nH]n1 [Example 186, 3-(1H-indazol-7-yl)-6-((S)-pyrrolidin-3-ylsulfonyl)-2-(2H-tetrazol-5-yl)benzenesulfonamide] | 9.64 | 9.27 | 9.61 | 1.563 | 1.563 | 1.563 | 0.7813 | 1.563 | 2.00 |  |  | 
NS(=O)(=O)c1c(S(=O)(=O)C2CNC2)ccc(-c2ccc(NS(=O)(=O)C3CC3)cc2)c1-c1nn[nH]n1 [Example 244, 4-(Azetidin-3-ylsulfonyl)-4′-(cyclopropanesulfonamido)-2-(2H-tetrazol-5-yl)-[1,1′-biphenyl]-3-sulfonamide] | 9.95 | 9.84 | 9.81 | 3.125 | 3.125 | 6.25 | 1.563 | 6.25 | 4.00 |  |  | 
Cn1nc(N)c2c(-c3ccc(S(=O)(=O)CCN)c(S(N)(=O)=O)c3-c3nnn[nH]3)cccc21 [Example 266, 3-(3-amino-1-methyl-1H-indazol-4-yl)-6-((2-aminoethyl)sulfonyl)-2-(1H-tetrazol-5-yl) benzenesulfonamide] | 9.63 | 9.19 | 9.70 |  |  |  | 3.125 | 6.25 | 2.00 | 3.125 | 6.25 | 6.25
NCCS(=O)(=O)c1ccc(-c2cccc3cc(C(N)=O)[nH]c23)c(-c2nn[nH]n2)c1S(N)(=O)=O [Example 323, 7-(4-((2-aminoethyl)sulfonyl)-3-sulfamoyl-2-(2H-tetrazol-5-yl)phenyl)-1H-indole-2-carboxamide] | 9.67 | 9.84 | 10.29 |  |  |  | 0.7813 | 0.7813 | 1.00 | 1.563 | 3.125 | 1.563
Nc1nc2cccc(-c3ccc(SC4CCNCC4)c(S(N)(=O)=O)c3-c3nn[nH]n3)c2[nH]1 [Example 3, 3-(2-amino-3H-benzo[d]imidazol-4-yl)-6-(piperidin-4-ylthio)-2-(2H-tetrazol-5-yl)benzenesulfonamide] | 7.10 | 6.96 | 8.49 | 6.25 | 0.125 | 25 | 2.563 | 25 | 9.75 |  |  | 
Nc1nc2c(-c3ccc(S(=O)(=O)C4CN(CCO)C4)c(S(N)(=O)=O)c3-c3nn[nH]n3)cccc2[nH]1 [Example 53, 3-(2-amino-1H-benzo[d]imidazol-4-yl)-6-(1-(2-hydroxyethyl)azetidin-3-ylsulfonyl)-2-(2H-tetrazol-5-yl)benzenesulfonamide] | 8.81 | 8.21 | 9.34 | 6.25 | 12.5 | 12.5 | 6.25 | 12.5 | 2.00 |  |  | 
NCCS(=O)(=O)c1ccc(-c2cncc(CO)c2)c(-c2nnn[nH]2)c1S(N)(=O)=O.O=C(O)C(F)(F)F [Example 143, 2-((4-(5-(hydroxymethyl)pyridin-3-yl)-2-sulfamoyl-3-(1H-tetrazol-5-yl)phenyl)sulfonyl)ethanaminium 2,2,2-trifluoroacetate] | 8.69 | 8.05 | 7.95 | 3.125 | 1.563 | 3.125 | 1.563 | 12.5 | 8.00 |  |  | 
Nc1n[nH]c2c(-c3ccc(S(=O)(=O)C4CNC4)c(S(N)(=O)=O)c3-c3nn[nH]n3)cccc12 [Example 21, 3-(3-amino-1H-indazol-7-yl)-6-(azetidin-3-ylsulfonyl)-2-(2H-tetrazol-5-yl)benzenesulfonamide] | 9.35 | 9.19 | 9.82 | 3.125 | 1.563 | 3.125 | 1.563 | 1.563 | 1.00 |  |  | 

From patent publication US10227331B2 (priority 2015, dated 2019)
